In patent publication US8969360B2, “Compounds useful as inhibitors of ATR kinase” (Vertex Pharmaceuticals Incorporated, priority 2013, dated 2015):

Key:
ATR kinase = biological target: T1, ATR kinase (Homo sapiens, UniProt Q13535); assay: ATR Inhibition Assay (radioactive-phosphate incorporation); type: biochemical; conditions: Ki(app); 5 nM full-length ATR, 10 μM ATP, 800 μM target peptide, 25° C.
T1 construct: Assays were carried out at 25° C. in the presence of 5 nM full-length ATR
How it was run: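 Full-length ATR (5 nM) in 50 mM Tris/HCl pH 7.5, 10 mM MgCl2, 1 mM DTT, with 800 μM peptide substrate and 10 μM [γ-33P]ATP at 25 °C. Compounds (from 15 μM final, 3-fold dilutions, 7% DMSO) were preincubated 10 min; the reaction was stopped at 24 h. 33P incorporation was captured on phosphocellulose; Ki(app) was from non-linear regression of initial rates.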

[1] = test system: HCT116 colorectal cancer cells; assay: Cisplatin Sensitization Assay (96 h cell viability MTS); type: cell-based; conditions: concentration of compound required to reduce the IC50 of Cisplatin alone by at least 3-fold; HCT116, 96 h MTS
How it was run: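 HCT116 cells received compound and cisplatin together as a full matrix of 2-fold dilutions, each from a 10 μM top final concentration. After 96 h at 37 °C and 5% CO2, viability was read by MTS (1 h, A490). The value is the compound concentration that lowers the cisplatin IC50 at least 3-fold.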

T1 sequence (Q13535 whole entry): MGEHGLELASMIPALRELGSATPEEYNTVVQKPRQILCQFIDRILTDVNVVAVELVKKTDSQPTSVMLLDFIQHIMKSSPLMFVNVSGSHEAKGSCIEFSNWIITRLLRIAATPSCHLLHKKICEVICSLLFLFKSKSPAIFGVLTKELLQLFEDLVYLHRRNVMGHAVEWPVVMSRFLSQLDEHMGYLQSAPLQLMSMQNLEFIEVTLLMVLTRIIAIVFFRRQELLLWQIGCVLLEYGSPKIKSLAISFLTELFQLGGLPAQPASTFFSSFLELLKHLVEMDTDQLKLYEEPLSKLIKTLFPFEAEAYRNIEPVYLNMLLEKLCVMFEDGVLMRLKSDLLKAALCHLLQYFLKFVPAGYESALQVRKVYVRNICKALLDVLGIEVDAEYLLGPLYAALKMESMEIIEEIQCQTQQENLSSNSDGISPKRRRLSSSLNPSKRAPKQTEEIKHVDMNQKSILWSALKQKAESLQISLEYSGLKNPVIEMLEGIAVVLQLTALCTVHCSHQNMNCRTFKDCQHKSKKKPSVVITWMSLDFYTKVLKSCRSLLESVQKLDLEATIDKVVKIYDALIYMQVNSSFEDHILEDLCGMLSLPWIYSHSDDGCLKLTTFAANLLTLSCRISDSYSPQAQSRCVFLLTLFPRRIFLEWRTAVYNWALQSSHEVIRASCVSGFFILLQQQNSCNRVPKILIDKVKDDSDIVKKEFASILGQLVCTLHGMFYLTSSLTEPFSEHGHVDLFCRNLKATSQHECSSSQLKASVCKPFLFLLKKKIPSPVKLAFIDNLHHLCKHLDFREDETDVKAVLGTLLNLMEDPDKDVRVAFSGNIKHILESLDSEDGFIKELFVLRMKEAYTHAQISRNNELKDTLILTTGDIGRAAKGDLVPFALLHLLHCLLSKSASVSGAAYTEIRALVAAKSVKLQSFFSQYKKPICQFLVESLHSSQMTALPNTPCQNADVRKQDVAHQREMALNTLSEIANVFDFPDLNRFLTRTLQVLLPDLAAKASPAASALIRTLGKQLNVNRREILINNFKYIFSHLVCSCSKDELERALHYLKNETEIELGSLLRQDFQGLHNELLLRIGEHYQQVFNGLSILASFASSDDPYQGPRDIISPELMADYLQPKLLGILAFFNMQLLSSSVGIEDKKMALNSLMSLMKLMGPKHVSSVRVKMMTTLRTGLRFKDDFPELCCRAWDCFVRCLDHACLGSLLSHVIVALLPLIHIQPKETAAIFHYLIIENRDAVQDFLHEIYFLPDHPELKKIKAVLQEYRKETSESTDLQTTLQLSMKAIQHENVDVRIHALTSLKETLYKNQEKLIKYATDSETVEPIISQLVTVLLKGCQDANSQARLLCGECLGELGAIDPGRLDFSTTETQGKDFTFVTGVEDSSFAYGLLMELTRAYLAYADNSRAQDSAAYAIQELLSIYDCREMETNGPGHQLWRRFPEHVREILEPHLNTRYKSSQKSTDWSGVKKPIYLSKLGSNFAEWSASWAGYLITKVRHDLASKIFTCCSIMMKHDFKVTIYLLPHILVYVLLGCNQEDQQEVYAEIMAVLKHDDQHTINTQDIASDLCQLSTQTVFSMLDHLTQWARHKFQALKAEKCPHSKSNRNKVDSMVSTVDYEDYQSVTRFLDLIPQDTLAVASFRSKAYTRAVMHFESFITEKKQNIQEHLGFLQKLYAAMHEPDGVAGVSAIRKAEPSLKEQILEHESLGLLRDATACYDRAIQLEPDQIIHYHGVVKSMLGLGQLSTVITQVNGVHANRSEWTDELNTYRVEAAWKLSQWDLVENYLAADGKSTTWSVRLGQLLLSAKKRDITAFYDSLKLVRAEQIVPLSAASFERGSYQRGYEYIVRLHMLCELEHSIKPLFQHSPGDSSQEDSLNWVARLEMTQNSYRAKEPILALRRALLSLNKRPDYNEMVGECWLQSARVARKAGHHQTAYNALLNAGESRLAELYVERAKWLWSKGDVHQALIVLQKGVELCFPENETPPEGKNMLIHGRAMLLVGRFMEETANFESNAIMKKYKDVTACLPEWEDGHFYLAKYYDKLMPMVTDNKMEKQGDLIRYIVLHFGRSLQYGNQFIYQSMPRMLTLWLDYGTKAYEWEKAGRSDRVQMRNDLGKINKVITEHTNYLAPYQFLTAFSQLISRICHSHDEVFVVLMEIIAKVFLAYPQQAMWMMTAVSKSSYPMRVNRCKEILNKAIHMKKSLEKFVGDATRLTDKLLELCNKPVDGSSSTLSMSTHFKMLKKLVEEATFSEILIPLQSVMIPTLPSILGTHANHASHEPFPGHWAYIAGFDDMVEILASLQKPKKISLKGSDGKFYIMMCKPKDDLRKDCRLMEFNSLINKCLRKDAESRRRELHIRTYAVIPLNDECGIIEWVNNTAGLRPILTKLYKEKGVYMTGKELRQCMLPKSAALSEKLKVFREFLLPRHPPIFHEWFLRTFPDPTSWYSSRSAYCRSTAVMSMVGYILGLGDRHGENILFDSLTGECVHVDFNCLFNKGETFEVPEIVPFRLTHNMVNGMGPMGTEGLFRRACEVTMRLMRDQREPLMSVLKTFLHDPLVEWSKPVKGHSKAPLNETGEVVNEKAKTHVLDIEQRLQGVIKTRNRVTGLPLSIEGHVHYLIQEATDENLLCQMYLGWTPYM

SMILES | Ki (ATR kinase) [µM] | Synergy with Cisplatin [1]
COc1ccncc1NC(=O)c1c(N)nn2ccc(OC3CCCN(C)C3)nc12 (stereo not drawn) [I-O-58, 2-amino-N-(4-methoxypyridin-3-yl)-5-((1-methylpiperidin-3-yl)oxy)pyrazolo[1,5-a]pyrimidine-3-carboxamide] | 0.01 to 1 | ++ (Compounds with a Cisplatin sensitization value>0.02 μM but <0.2 μM are marked with “++.”)
CN1CCN(c2ccncc2NC(=O)c2c(N)nn3ccc(C(F)(F)F)nc23)CC1 [I-N-1, 2-amino-N-(4-(4-methylpiperazin-1-yl)pyridin-3-yl)-5-(trifluoromethyl)pyrazolo[1,5-a]pyrimidine-3-carboxamide] | 0.01 to 1 | + (Compounds with a Cisplatin sensitization value >0.2 μM but <5 μM are marked with “+.”)
Nc1nn2ccc(C(F)(F)F)nc2c1C(=O)Nc1cnccc1O[C@H]1CCNC1 [I-O-21, (S)-2-amino-N-(4-(pyrrolidin-3-yloxy)pyridin-3-yl)-5-(trifluoromethyl)pyrazolo[1,5-a]pyrimidine-3-carboxamide] | 0.01 to 1 | ++ (Compounds with a Cisplatin sensitization value>0.02 μM but <0.2 μM are marked with “++.”)
COc1ccncc1NC(=O)c1c(N)nn2ccc(N3CCNCC3)nc12 [I-O-76, 2-amino-N-(4-methoxypyridin-3-yl)-5-(piperazin-1-yl)pyrazolo[1,5-a]pyrimidine-3-carboxamide] | 0.01 to 1 | ++ (Compounds with a Cisplatin sensitization value>0.02 μM but <0.2 μM are marked with “++.”)
COCCOc1ccncc1NC(=O)c1c(N)nn2ccc(C(F)(F)F)nc12 [I-O-8, 2-amino-N-(4-(2-methoxyethoxy)pyridin-3-yl)-5-(trifluoromethyl)pyrazolo[1,5-a]pyrimidine-3-carboxamide] | 0.01 to 1 | +++ (Compounds with a Cisplatin sensitization value of <0.02 μM are marked with “+++.”)
CN1CCC[C@H]1COc1ccncc1NC(=O)c1c(N)nn2ccc(C(F)(F)F)nc12 [I-O-33, (S)-2-amino-N-(4-((1-methylpyrrolidin-2-yl)methoxy)pyridin-3-yl)-5-(trifluoromethyl)pyrazolo[1,5-a]pyrimidine-3-carboxamide] | 0.01 to 1 | ++ (Compounds with a Cisplatin sensitization value>0.02 μM but <0.2 μM are marked with “++.”)
CN(C)CCOc1cc(Cl)ncc1NC(=O)c1c(N)nn2ccc(C(F)(F)F)nc12 [I-O-50, 2-amino-N-(6-chloro-4-(2-(dimethylamino)ethoxy)pyridin-3-yl)-5-(trifluoromethyl)pyrazolo[1,5-a]pyrimidine-3-carboxamide] | 0.01 to 1 | ++ (Compounds with a Cisplatin sensitization value>0.02 μM but <0.2 μM are marked with “++.”)
COc1cc(C)ncc1NC(=O)c1c(N)nn2ccc(C(F)(F)F)nc12 [I-O-46, 2-amino-N-(4-methoxy-6-methylpyridin-3-yl)-5-(trifluoromethyl)pyrazolo[1,5-a]pyrimidine-3-carboxamide] | 0.01 to 1 | ++ (Compounds with a Cisplatin sensitization value>0.02 μM but <0.2 μM are marked with “++.”)
COc1ccncc1NC(=O)c1c(N)nn2ccc(OC3CCN(C)C3)nc12 (stereo not drawn) [I-O-57, 2-amino-N-(4-methoxypyridin-3-yl)-5-((1-methylpyrrolidin-3-yl)oxy)pyrazolo[1,5-a]pyrimidine-3-carboxamide] | 0.01 to 1 | ++ (Compounds with a Cisplatin sensitization value>0.02 μM but <0.2 μM are marked with “++.”)
COc1cc(Cl)ncc1NC(=O)c1c(N)nn2ccc(OCCN(C)C)nc12 [I-O-65, 2-amino-N-(6-chloro-4-methoxypyridin-3-yl)-5-(2-(dimethylamino)ethoxy)pyrazolo[1,5-a]pyrimidine-3-carboxamide] | 0.01 to 1 | + (Compounds with a Cisplatin sensitization value >0.2 μM but <5 μM are marked with “+.”)
COc1ccncc1NC(=O)c1c(N)nn2ccc(OCCN(C)C)nc12 [I-O-62, 2-amino-5-(2-(dimethylamino)ethoxy)-N-(4-methoxypyridin-3-yl)pyrazolo[1,5-a]pyrimidine-3-carboxamide] | 0.01 to 1 | ++ (Compounds with a Cisplatin sensitization value>0.02 μM but <0.2 μM are marked with “++.”)
COc1ccncc1NC(=O)c1c(N)nn2ccc(N3CCNC(C(F)(F)F)C3)nc12 (stereo not drawn) [I-O-74, 2-amino-N-(4-methoxypyridin-3-yl)-5-(3-(trifluoromethyl)piperazin-1-yl)pyrazolo[1,5-a]pyrimidine-3-carboxamide] | < 0.01 | +++ (Compounds with a Cisplatin sensitization value of <0.02 μM are marked with “+++.”)
Nc1nn2ccc(C(F)(F)F)nc2c1C(=O)Nc1cnccc1OCCN1CCOCC1 [I-O-20, 2-amino-N-(4-(2-morpholinoethoxy)pyridin-3-yl)-5-(trifluoromethyl)pyrazolo[1,5-a]pyrimidine-3-carboxamide] | 0.01 to 1 | ++ (Compounds with a Cisplatin sensitization value>0.02 μM but <0.2 μM are marked with “++.”)
Nc1nn2ccc(C(F)(F)F)nc2c1C(=O)Nc1cnccc1OC1CCCNC1 (stereo not drawn) [I-O-23, 2-amino-N-(4-(piperidin-3-yloxy)pyridin-3-yl)-5-(trifluoromethyl)pyrazolo[1,5-a]pyrimidine-3-carboxamide] | 0.01 to 1 | ++ (Compounds with a Cisplatin sensitization value>0.02 μM but <0.2 μM are marked with “++.”)
CN(C)CCOc1cc(C(F)(F)F)ncc1NC(=O)c1c(N)nn2ccc(C(F)(F)F)nc12 [I-O-51, 2-amino-N-(4-(2-(dimethylamino)ethoxy)-6-(trifluoromethyl)pyridin-3-yl)-5-(trifluoromethyl)pyrazolo[1,5-a]pyrimidine-3-carboxamide] | 0.01 to 1 | + (Compounds with a Cisplatin sensitization value >0.2 μM but <5 μM are marked with “+.”)
Cc1ccncc1NC(=O)c1c(N)nn2ccc(C(F)(F)F)nc12 [I-C-1, 2-amino-N-(4-methylpyridin-3-yl)-5-(trifluoromethyl)pyrazolo[1,5-a]pyrimidine-3-carboxamide] | 0.01 to 1 | ++ (Compounds with a Cisplatin sensitization value>0.02 μM but <0.2 μM are marked with “++.”)
CN1CC[C@H](Oc2ccncc2NC(=O)c2c(N)nn3ccc(C(F)(F)F)nc23)C1 [I-O-40, (S)-2-amino-N-(4-((1-methylpyrrolidin-3-yl)oxy)pyridin-3-yl)-5-(trifluoromethyl)pyrazolo[1,5-a]pyrimidine-3-carboxamide] | 0.01 to 1 | ++ (Compounds with a Cisplatin sensitization value>0.02 μM but <0.2 μM are marked with “++.”)
Nc1nn2ccc(C(F)(F)F)nc2c1C(=O)Nc1cnccc1OC1CCCOC1 (stereo not drawn) [I-O-12, 2-amino-N-(4-((tetrahydro-2H-pyran-3-yl)oxy)pyridin-3-yl)-5-(trifluoromethyl)pyrazolo[1,5-a]pyrimidine-3-carboxamide] | 0.01 to 1 | +++ (Compounds with a Cisplatin sensitization value of <0.02 μM are marked with “+++.”)
Nc1nn2ccc(C(F)(F)F)nc2c1C(=O)Nc1cnccc1-c1ccccc1 [I-C-2, 2-amino-N-(4-phenylpyridin-3-yl)-5-(trifluoromethyl)pyrazolo[1,5-a]pyrimidine-3-carboxamide] | 0.01 to 1 | + (Compounds with a Cisplatin sensitization value >0.2 μM but <5 μM are marked with “+.”)
Nc1nn2ccc(C(F)(F)F)nc2c1C(=O)Nc1cnccc1OCCN1CC2(COC2)C1 [I-O-38, N-(4-(2-(2-oxa-6-azaspiro[3.3]heptan-6-yl)ethoxy)pyridin-3-yl)-2-amino-5-(trifluoromethyl)pyrazolo[1,5-a]pyrimidine-3-carboxamide] | 0.01 to 1 | + (Compounds with a Cisplatin sensitization value >0.2 μM but <5 μM are marked with “+.”)
Nc1nn2ccc(C(F)(F)F)nc2c1C(=O)Nc1cnccc1OCCCO [I-O-14, 2-amino-N-(4-(3-hydroxypropoxy)pyridin-3-yl)-5-(trifluoromethyl)pyrazolo[1,5-a]pyrimidine-3-carboxamide] | < 0.01 | +++ (Compounds with a Cisplatin sensitization value of <0.02 μM are marked with “+++.”)
Nc1nn2ccc(C(F)(F)F)nc2c1C(=O)Nc1cnccc1Oc1cccnc1 [I-O-15, 2-amino-N-(4-(pyridin-3-yloxy)pyridin-3-yl)-5-(trifluoromethyl)pyrazolo[1,5-a]pyrimidine-3-carboxamide] | < 0.01 | +++ (Compounds with a Cisplatin sensitization value of <0.02 μM are marked with “+++.”)
COCCN1CCC[C@@H](Oc2ccncc2NC(=O)c2c(N)nn3ccc(C(F)(F)F)nc23)C1 [I-O-43, (R)-2-amino-N-(4-((1-(2-methoxyethyl)piperidin-3-yl)oxy)pyridin-3-yl)-5-(trifluoromethyl)pyrazolo[1,5-a]pyrimidine-3-carboxamide] | 0.01 to 1 | ++ (Compounds with a Cisplatin sensitization value>0.02 μM but <0.2 μM are marked with “++.”)
COc1ccncc1NC(=O)c1c(N)nn2ccc(N3CCNC(C)C3)nc12 (stereo not drawn) [I-O-77, 2-amino-N-(4-methoxypyridin-3-yl)-5-(3-methylpiperazin-1-yl)pyrazolo[1,5-a]pyrimidine-3-carboxamide] | 0.01 to 1 | ++ (Compounds with a Cisplatin sensitization value>0.02 μM but <0.2 μM are marked with “++.”)
